# Laboratory results: patent US10266527B2, “T-box riboswitch-binding anti-bacterial compounds” (THE RESEARCH FOUNDATION FOR THE STATE UNIVERSITY OF NEW YORK, priority 2013, dated 2019)
# Entries after “also recorded” stand apart in the source; their conditions may differ. Like-named read-outs stand apart in the source and are kept apart here.
# What was measured:
# Format in all cases: cell-based
# S. aureus = assay: Disc diffusion assay (DDA) of PKZ6 and PKZ18 analogs with S. aureus; settings: Table 4, 150 μg/ml, ✓ = zone of inhibition observed
# From the text: (§1) The identity and purity of both PKZ 6 and 18 was confirmed by mass spectroscopy. Forty commercially available compounds chosen on the basis of initial in silico selections and similarity to our two hits were screened by disc diffusion assay (DDA) to determine their relative antibacterial activity with S. aureus. […] These 14 compounds were further evaluated by minimum inhibitory concentration assays (MIC)^41,42, and minimum bactericidal assays (MBC)^41 to confirm antibacterial activity, determine the concentration at which S. aureus growth is inhibited in liquid culture (MIC) and if they are acting as bacteriostatic or bactericidal agents (MBC). […] Representative embodiments are shown below.
# All compounds were tested at a concentration of 150 μg/ml.
# S. aureus ATCC 29213 [1] = assay: Broth microdilution MIC; settings: for MIC: Staphylococcus aureus, ATCC29213
# From the text: as §1
# (§2) Broth microdilution assays^77, 78 were performed with B. subtilis, and S. aureus to determine the lowest compound concentration inhibiting visible growth, i.e., minimum inhibitory concentration (MIC) of the 4 original compounds. […] The insolubility of the fourth compound may account for its lack of antibacterial activity. […] The MICs of each compound are moderate.
# (§3) Strains were grown on trypticase soy agar (TSA) with 5% sheep blood at 37° C. for 24 hours. Five isolated colonies were used to inoculate 5 mL cation-adjusted Mueller-Hinton broth (CAMHB) contained in a 50 mL centrifuge tube. The resulting culture was incubated shaking at 200 rpm for 3 hours at 37° C. and then diluted in CAMHB until its turbidity matched that of a 0.5 McFarland standard (OD625 0.08-0.10). After the culture had been standardized against a 0.5 McFarland standard, it was diluted 1:10 in CAMHB and then 5 μL of this dilution was added to the appropriate wells of a 96-well, flat-bottomed tissue culture plate in which each row contained a twofold dilution series of a particular compound ranging in concentration from 0.25 μg/mL to 512 μg/mL. Each plate also included a sterility control well containing CAMHB to which standardized inoculum was not added and a growth control well containing CAMHB to which 5 μL standardized inoculum was added. […] With the exception of the sterility control well, all wells were inoculated within 15 minutes of inoculum preparation to ensure that the starting concentration of bacteria in each well was approximately 5×10^5 CFU/m L. A Tecan Sunrise microplate absorbance reader was used to measure the OD620 of each well before and after 20 h incubation at 37° C. MIC values were recorded as the lowest compound concentration at which no visible growth was observed after this incubation period.
# S. aureus ATCC 29213 [2] = assay: MBC determination; settings: for S. aureus (MBC): Table 5 analogs, triplicate experiments, N/O = not observed at concentrations tested (512-0.25 μg/mL); for MBC: S. aureus ATCC 29213, N/O = not observed
# From the text: as §1
# (§4) Following 24 h incubation of these subcultures at 37° C., MBC values were recorded as the lowest compound concentration at which no viable colonies were observed.
# E. coli ATCC 25922 [3] = assay: Broth microdilution MIC (Gram negative specificity control); settings: for antibacterial activity against E. coli (in words): E. coli negative control without T-box riboswitch
# E. coli ATCC 25922 [4] = assay: MBC determination; settings: for E. coli (MBC): Table 5 analogs, triplicate experiments, N/O = not observed at concentrations tested (512-0.25 μg/mL)
# Method: as §4
# B. cereus ATCC 7064 [5] = assay: Broth microdilution MIC; settings: for MIC: Bacillus cereus, ATCC7064, B. cereus ATCC 7064, read-out: MIC; for growth inhibition of B. cereus (in words): at moderate concentrations
# E. faecalis ATCC 29212 [6] = assay: Broth microdilution MIC
# B. subtilis = assay: Disc diffusion assay, growth inhibition of B. subtilis; settings: Table 1, ✓ = zone of inhibition observed
# From the text: The same 20 top binders and 8 additional predicted to interact with the cleft of the tyrRS mRNA Specifier Loop were selected from subsequent docking and preliminary fluorescence data.
# B. subtilis BGSC 1A1 [7] = assay: Broth microdilution MIC; settings: for MIC: Bacillus subtilis, BGSC1A1, B. subtilis BGSC 1A1, 20 h at 37° C., read-out: MIC
# Method: as §2, §3
# P. aeruginosa ATCC 27853 = assay: Broth microdilution MIC; settings: N/O = not observed
# S. pneumoniae ATCC 49619 = assay: Broth microdilution MIC; settings: for MIC: Streptococcus pneumoniae, ATCC49619, S. pneumoniae ATCC 49619, read-out: MIC; for growth inhibition of S. pneumoniae (in words): at moderate concentrations
# [8] = system: Human Embryonic Kidney (HEK293) cells; assay: Toxicity on a monolayer of HEK293 cells
# B. subtilis BGSC 1A1 [9] = assay: MBC determination
# Method: as §4
# B. cereus ATCC 7064 [10] = assay: MBC determination; settings: Bacillus cereus, ATCC7064, N/O = not observed, read-out: MBC
# Method: as §4
# E. faecalis ATCC 29212 [11] = assay: MBC determination; settings: N/O = not observed
# Method: as §4
# [12] = Table 5 analogs, triplicate experiments, N/O = not observed at concentrations tested (512-0.25 μg/mL), read-out: S. aureus MIC
# [13] = Table 5 analogs, triplicate experiments, N/O = not observed at concentrations tested (512-0.25 μg/mL)
# [14] = S. aureus ATCC 29213, N/O = not observed, read-out: MIC
structure (smiles),measurement,setting,value
C[C@@H]1CC[C@@H](C)[C@H](C(=O)Nc2nc(-c3ccc(Cl)cc3Cl)cs2)C1C(=O)O (stereo partly shown) [Compound 1820],ZOI observed,S. aureus,✓
same,MIC,S. aureus ATCC 29213 [1]; [12],64 µg/mL
same,S. aureus (MBC),S. aureus ATCC 29213 [2],N/O
O=C(O)C1C2CCC(C2)C1C(=O)Nc1nc(-c2cccs2)cs1 (stereo not shown) [Compound 1813],E. coli MIC,E. coli ATCC 25922 [3]; [13],N/O (N/O)
same,ZOI observed,S. aureus,✓
same,S. aureus MIC,S. aureus ATCC 29213 [1]; [13],N/O (N/O)
same,E. coli (MBC),E. coli ATCC 25922 [4],N/O (N/O)
same,S. aureus (MBC),S. aureus ATCC 29213 [2],N/O (N/O)
Cc1sc(NC(=O)C2C3CCC(C3)C2C(=O)O)nc1-c1ccc(C(C)C)cc1 (stereo not shown) [Compound 18],MIC,"E. coli ATCC 25922 [3]; E. coli ATCC 25922, N/O = not observed",N/O (N/D)
same,antibacterial activity against E. coli (in words),E. coli ATCC 25922 [3],did not inhibit growth
same,MIC,B. cereus ATCC 7064 [5],64 µg/mL
same,growth inhibition of B. cereus (in words),B. cereus ATCC 7064 [5],inhibited growth
same,MIC,E. faecalis ATCC 29212 [6]; N/O = not observed,N/O (N/D)
same,ZOI observed,B. subtilis,✓
same,antibacterial activity against B. subtilis (in words),B. subtilis BGSC 1A1 [7],inhibited growth; also recorded: active
same,MIC,B. subtilis BGSC 1A1 [7],64 µg/mL
same,MIC,P. aeruginosa ATCC 27853,N/O (N/D)
same,antibacterial activity against S. aureus (in words),S. aureus ATCC 29213 [1],inhibited growth; also recorded: displayed antibacterial properties
same,MIC,S. aureus ATCC 29213 [1]; [14],64 µg/mL
same,MIC,S. pneumoniae ATCC 49619,64 µg/mL
same,growth inhibition of S. pneumoniae (in words),S. pneumoniae ATCC 49619,inhibited growth
same,16 hr post exposure % Live,[8]; 32 ug/ml,100%
same,16 hr post exposure Morphology,[8]; 32 ug/ml,Normal
same,24 hr post exposure % Confluent,[8]; 32 ug/ml,90%
same,24 hr post exposure % Live,[8]; 32 ug/ml,100%
same,24 hr post exposure Morphology,[8]; 32 ug/ml,Normal
same,16 hr post exposure % Live,[8]; 64 ug/ml,100%
same,16 hr post exposure Morphology,[8]; 64 ug/ml,Normal
same,24 hr post exposure % Confluent,[8]; 64 ug/ml,90%
same,24 hr post exposure % Live,[8]; 64 ug/ml,90%
same,24 hr post exposure Morphology,[8]; 64 ug/ml,Mix of Normal and Detached
same,16 hr post exposure % Live,[8]; 128 ug/ml,100%
same,16 hr post exposure Morphology,[8]; 128 ug/ml,Normal
same,24 hr post exposure % Confluent,[8]; 128 ug/ml,15%
same,24 hr post exposure % Live,[8]; 128 ug/ml,15%
same,24 hr post exposure Morphology,[8]; 128 ug/ml,Rounded and Detached
same,MBC,"B. subtilis BGSC 1A1 [9]; Bacillus subtilis, BGSC1A1, IND = indeterminate, read-out: MBC",64 µg/mL
same,MBC,B. cereus ATCC 7064 [10],64 µg/mL
same,MBC,S. aureus ATCC 29213 [2],N/O
O=C(NCCN1CCNCC1)C1=C(O)C2=CC=CC3CCN(C1=O)C23 (stereo not shown) [Compound 0613],ZOI observed,S. aureus,✓
CC1CC(NC(=O)C2C3CCC(C3)C2C(=O)O)CC(C)(C)C1 (stereo not shown) [Compound 0605],ZOI observed,S. aureus,✓
CCCn1c(=O)c(C(=O)NCCN2CCNCC2)c(O)c2ccccc21 [Compound 0610],ZOI observed,S. aureus,✓
CC1=C(C)CC(C(=O)Nc2nc(-c3ccc(C)cc3)c(C)s2)C(C(=O)O)C1 (stereo not shown) [Compound 1810],MIC,"E. coli ATCC 25922 [3]; Escherichia coli, ATCC25922, Table 5 analogs, triplicate experiments, N/O = not observed at concentrations tested (512-0.25 μg/mL), read-out: E. coli MIC",512 µg/mL
same,ZOI observed,S. aureus,✓
same,MIC,S. aureus ATCC 29213 [1]; [12],256 µg/mL
same,E. coli (MBC),E. coli ATCC 25922 [4],N/O
same,S. aureus (MBC),S. aureus ATCC 29213 [2],N/O
CCCc1ccc(-c2nc(NC(=O)C3CC(C)=C(C)CC3C(=O)O)sc2C)cc1 (stereo not shown) [Compound 1808],ZOI observed,S. aureus,✓
O=C(NCCN1CCNCC1)c1c(O)c2cccc3c2n(c1=O)CCC3 [Compound 6],antibacterial activity against E. coli (in words),E. coli ATCC 25922 [3],moderate antibacterial activity
same,MIC,"E. coli ATCC 25922 [3]; Escherichia coli, ATCC25922, E. coli ATCC 25922, N/O = not observed, read-out: MIC",256 µg/mL
same,MIC,B. cereus ATCC 7064 [5],128 µg/mL
same,growth inhibition of B. cereus (in words),B. cereus ATCC 7064 [5],inhibited growth
same,MIC,"E. faecalis ATCC 29212 [6]; Enterococcus faecalis, ATCC29212, N/O = not observed, read-out: MIC",128 µg/mL
same,ZOI observed,B. subtilis,✓
same,antibacterial activity against B. subtilis (in words),B. subtilis BGSC 1A1 [7],active
same,MIC,B. subtilis BGSC 1A1 [7],32 µg/mL
same,antibacterial activity against B. subtilis (in words),B. subtilis BGSC 1A1 [7]; listed as PKZ 6,inhibited growth
same,MIC,P. aeruginosa ATCC 27853,N/O (N/D)
same,antibacterial activity against S. aureus (in words),S. aureus ATCC 29213 [1],displayed antibacterial properties
same,MIC,S. aureus ATCC 29213 [1]; [14],256 µg/mL
same,antibacterial activity against S. aureus (in words),S. aureus ATCC 29213 [1]; listed as PKZ 6,inhibited growth
same,MIC,S. pneumoniae ATCC 49619,64 µg/mL
same,growth inhibition of S. pneumoniae (in words),S. pneumoniae ATCC 49619,inhibited growth
same,16 hr post exposure % Live,[8]; 32 ug/ml,100%
same,16 hr post exposure Morphology,[8]; 32 ug/ml,Normal
same,24 hr post exposure % Confluent,[8]; 32 ug/ml,50%
same,24 hr post exposure % Live,[8]; 32 ug/ml,70%
same,16 hr post exposure % Live,[8]; 64 ug/ml,60%
same,16 hr post exposure Morphology,[8]; 64 ug/ml,Mix of Normal and Detached
same,24 hr post exposure % Confluent,[8]; 64 ug/ml,15%
same,24 hr post exposure % Live,[8]; 64 ug/ml,25%
same,24 hr post exposure Morphology,[8]; 64 ug/ml,Mix of Normal and Detached
same,16 hr post exposure % Live,[8]; 128 ug/ml,0%
same,16 hr post exposure Morphology,[8]; 128 ug/ml,Rounded and Detached
same,24 hr post exposure % Confluent,[8]; 128 ug/ml,0%
same,24 hr post exposure % Live,[8]; 128 ug/ml,0%
same,24 hr post exposure Morphology,[8]; 128 ug/ml,Rounded and Detached
same,MBC,E. faecalis ATCC 29212 [11],N/O
same,MBC,B. subtilis BGSC 1A1 [9]; IND = indeterminate,IND
same,MBC,B. cereus ATCC 7064 [10],256 µg/mL
same,MBC,"E. coli ATCC 25922 [4]; Escherichia coli, ATCC25922, E. coli ATCC 25922, read-out: MBC",256 µg/mL
same,MBC,S. aureus ATCC 29213 [2],N/O
